In data set [1] the test system is A549 human lung carcinoma. Description: Cytotoxicity IC50 (after Berjeron et al).
Source text: (§1) Methodology: after Berjeron et al, Biochem and Bioph Res. Comm., 1984, 121, 3, 848-854.
(§2) P388=Murine lymphoma. A549=human lung carcinoma. HT-29=human colon carcinoma. MEL-28=human melanoma.
(§3) A549=human lung carcinoma. HT-29=human colon carcinoma. MEL-28=human melanoma.
In data set [2] the test system is HT-29 human colon carcinoma. Description: Cytotoxicity IC50 (after Berjeron et al).
Source text: as §1, §2, §3
Setting [3] is: Homo sapiens, A549, read-out: Cytotoxicity of aplidine derivatives IC50 (Molar) A549.
Where [4] appears, read: Homo sapiens, HT-29, read-out: Cytotoxicity of aplidine derivatives IC50 (Molar) HT29.
Setting [5] is: read-out: Cytotoxicity of aplidine derivatives IC50 (Molar) A549, A549.
[6] abbreviates: read-out: Cytotoxicity of aplidine derivatives IC50 (Molar) HT29, HT29.

Read-outs that look alike come from different tables or passages of the source. *1 amine or outer side, *2 acyl side, *3 side chain or, on linkers, in order; H or OH if unused. Where a SMILES comes first, the peptide text is derived from it. Bridges are numbered along the chain shown (N, C = ends). [ ]: non-standard residue; d: D form. The star is where a group is joined. ξ: configuration not given here. X2 = CC[C@H](C)[C@@H](N[*:1])[C@@H](O)CC(=O)[*:2]; X4 = CC(C)[C@H](N[*:1])C(=O)[C@H](C)C(=O)[*:2]; X3 = C[C@H](O[Si](C)(C)C(C)(C)C)C(=O)*; NMeY = CN[C@@H](Cc1ccc(O)cc1)C(=O)O; dNMeL = CN[C@H](CC(C)C)C(=O)O; Pyruvoyl = CC(=O)C(=O)*; Cbz = O=C(OCc1ccccc1)*; Lac = C[C@H](O)C(=O)O; ξP = O=C(O)C1CCCN1

For orientation: IC50 means the midpoint of a concentration-inhibition curve. On to `CC[C@H](C)[C@H]1NC(=O)[C@@H](NC(=O)[C@@H](CC(C)C)N(C)C(=O)C2CCCN2C(=O)[C@H](C)O)[C@@H](C)OC(=O)[C@H](Cc2ccc(OC)cc2)N(C)C(=O)[C@@H]2CCCN2C(=O)[C@H](CC(C)C)NC(=O)[C@H](C(C)C)NC(=O)C[C@@H]1O` (stereo partly drawn) [9LSVPL1(L), [Val]^3-[L-Lac]^9-aplidine] (H-[Lac][ξP][dNMeL]T[X2]VLP[NMeY](Me); ester 4-C), for which the IC50 in data set [1] (setting [3]) and in data set [2] (setting [4]) was 0.948 nM each time.
Consider `CC[C@H](C)[C@H]1NC(=O)[C@@H](NC(=O)[C@@H](CC(C)C)N(C)C(=O)C2CCCN2C(=O)[C@H](C)O[Si](C)(C)C(C)(C)C)[C@@H](C)OC(=O)[C@H](Cc2ccc(OC)cc2)N(C)C(=O)[C@@H]2CCCN2C(=O)[C@H](CC(C)C)NC(=O)[C@H](C(C)C)NC(=O)C[C@@H]1O` (stereo partly drawn) [9LSVPL2(L), [Val]^3-[L-Lac(OTBDMS)]^9-aplidine] (X3-[ξP][dNMeL]T[X2]VLP[NMeY](Me); ester 3-C), for which the 50% inhibitory concentration (IC50) in data set [1] (setting [3]) worked out at 10.2 nM; in data set [2] (setting [4]), 8.55 nM.
In the case of `C=C(C)C(=O)N1CCC[C@]12CCN([C@H](CC(C)C)C(=O)N[C@@H]1C(=O)N[C@H]([C@@H](C)CC)[C@@H](O)CC(=O)O[C@@H](C(C)C)C(=O)N[C@@H](CC(C)C)C(=O)N3CCC[C@H]3C(=O)N(C)[C@@H](Cc3ccc(OC)cc3)C(=O)O[C@@H]1C)C2=O` [9SASHPL1], the half-maximal inhibitory concentration (IC50) in data set [1] (setting [3]) and in data set [2] (setting [4]) was 93.9 nM in each case.
For the molecule `CC[C@H](C)[C@H]1NC(=O)[C@@H](NC(=O)[C@@H](CC(C)C)N2CC[C@]3(CCCN3C(=O)OC(C)(C)C)C2=O)[C@@H](C)OC(=O)[C@H](Cc2ccc(OC)cc2)N(C)C(=O)[C@@H]2CCCN2C(=O)[C@H](CC(C)C)NC(=O)[C@@H](C)C(=O)[C@H](C(C)C)OC(=O)C[C@@H]1O` [9SBSAPL1, [(5R)-1-(tert-buthoxycarbonyl)-7-[(1R)-1-carboxy-3-methylbutyl]-6-oxo-1,7-diazaspiro[4,4]nonane]^7-9-aplidine], the IC50 in data set [1] (setting [3]) and in data set [2] (setting [4]) was 8.68 nM throughout.
As to `CC[C@H](C)[C@H]1NC(=O)[C@@H](NC(=O)[C@@H](CC(C)C)N2CC[C@]3(CCCN3C(=O)OC(C)(C)C)C2=O)[C@@H](C)OC(=O)[C@H](Cc2ccc(OC)cc2)N(C)C(=O)[C@@H]2CCCN2C(=O)[C@H](CC(C)C)NC(=O)[C@H](C(C)C)OC(=O)C[C@@H]1O` [9SBSHPL1], the concentration for half-maximal inhibition (IC50) in data set [1] (setting [3]) and in data set [2] (setting [4]) was 4.56 nM throughout.
For the molecule `CC[C@H](C)[C@H]1NC(=O)[C@@H](NC(=O)[C@@H](CC(C)C)N2CC[C@]3(CCCN3C(=O)C(C)C)C2=O)[C@@H](C)OC(=O)[C@H](Cc2ccc(OC)cc2)N(C)C(=O)[C@@H]2CCCN2C(=O)[C@H](CC(C)C)NC(=O)[C@@H](C)C(=O)[C@H](C(C)C)OC(=O)C[C@@H]1O` [9SISAPL1, [(5R)-1-(isobutiryl)-7-[(R)-1-carboxy-3-methylbutyl]-6-oxo-1,7-diazaspiro[4,4]nonane]^7-9-Aplidine], the concentration for half-maximal inhibition (IC50) in data set [1] (setting [3]) and in data set [2] (setting [4]) was 89.1 nM each time.
On to `CC[C@H](C)[C@H]1NC(=O)[C@@H](NC(=O)[C@@H](CC(C)C)N2CC[C@]3(CCCN3C(=O)C(C)C)C2=O)[C@@H](C)OC(=O)[C@H](Cc2ccc(OC)cc2)N(C)C(=O)[C@@H]2CCCN2C(=O)[C@H](CC(C)C)NC(=O)[C@H](C(C)C)OC(=O)C[C@@H]1O` [9SISHPL1, [Hiv]^3-[(5R)-1-(tert-buthoxycarbonyl)-7-[(1R)-1-carboxy-3-methylbutyl]-6-oxo-1,7-diazaspiro[4,4]nonane]^7-9-aplidine], for which the half-inhibitory concentration (IC50) in data set [1] (setting [3]) and in data set [2] (setting [4]) was 93.8 nM in each case.
As for `CC[C@H](C)[C@H]1NC(=O)[C@@H](NC(=O)[C@@H](CC(C)C)N2CC[C@]3(CCCN3C(=O)C(C)=O)C2=O)[C@@H](C)OC(=O)[C@H](Cc2ccc(OC)cc2)N(C)C(=O)[C@@H]2CCCN2C(=O)[C@H](CC(C)C)NC(=O)[C@@H](C)C(=O)[C@H](C(C)C)OC(=O)C[C@@H]1O` [9SPSAPL1, [(5R)-1-(pyruvyl)-7-[(1R)-1-carboxy-3-methylbutyl]-6-oxo-1,7-diazaspiro[4,4]nonane]^7-9-aplidine], the figures for the IC50 in data set [1] (setting [3]) and in data set [2] (setting [4]) were 8.55 nM and 8.9 nM, respectively.
The corresponding values for `CC[C@H](C)[C@H]1NC(=O)[C@@H](NC(=O)[C@@H](CC(C)C)N2CC[C@]3(CCCN3C(=O)C(C)=O)C2=O)[C@@H](C)OC(=O)[C@H](Cc2ccc(OC)cc2)N(C)C(=O)[C@@H]2CCCN2C(=O)[C@H](CC(C)C)NC(=O)[C@H](C(C)C)OC(=O)C[C@@H]1O` [9SPSHPL1, [Hiv]^3-[(5R)-1-(pyruvyl)-7-[(1R)-1-carboxy-3-methylbutyl]-6-oxo-1,7-diazaspiro[4,4]nonane]^7-9-aplidine] are 93.8 nM and 93.8 nM.
In the case of `CC[C@H](C)[C@H]1NC(=O)[C@@H](NC(=O)[C@@H](CC(C)C)N(C)C(=O)[C@@H]2CCCN2C(=O)C(C)=O)[C@@H](C)OC(=O)[C@H](Cc2ccc(OC)cc2)N(C)C(=O)[C@@H]2CCCN2C(=O)[C@H](CC(C)C)NC(=O)[C@@H](C)C(=O)[C@H](C(C)C)NC(=O)C[C@@H]1O` [SNPL1, [Aip]^3-Aplidine] (Pyruvoyl-P[dNMeL]T[X2][X4]LP[NMeY](Me); ester 3-C), the IC50 in data set [1] (Homo sapiens, A549, read-out: Cytotoxicity of [aa3]-aplidine Congeners IC50 (Molar) A549) stood at 0.901 nM; in data set [2] (Homo sapiens, HT-29, read-out: Cytotoxicity of [aa3]-aplidine Congeners IC50 (Molar) HT29) it was 0.901 nM.
With `CC[C@H](C)[C@H]1NC(=O)[C@@H](NC(=O)[C@@H](CC(C)C)NC)[C@@H](C)OC(=O)[C@H](Cc2ccc(OC)cc2)N(C)C(=O)[C@@H]2CCCN2C(=O)[C@H](CC(C)C)NC(=O)[C@@H](C)C(=O)[C@H](C(C)C)NC(=O)C[C@@H]1O` [SNPL2, [Aip]^3-Didemnin A] (H-[dNMeL]T[X2][X4]LP[NMeY](Me); ester 2-C), the IC50 in data set [1] (setting [3]) and in data set [2] (setting [4]) was 10.6 nM in each case.
For `CC[C@H](C)[C@H]1NC(=O)[C@@H](NC(=O)[C@@H](CC(C)C)N(C)C(=O)OCc2ccccc2)[C@@H](C)OC(=O)[C@H](Cc2ccc(OC)cc2)N(C)C(=O)[C@@H]2CCCN2C(=O)[C@H](CC(C)C)NC(=O)[C@@H](C)C(=O)[C@H](C(C)C)NC(=O)C[C@@H]1O` [SNPL3, [Aip]^3 Z-Didemnin A] (Cbz-[dNMeL]T[X2][X4]LP[NMeY](Me); ester 2-C), the concentration for half-maximal inhibition (IC50) in data set [1] (setting [3]) and in data set [2] (setting [4]) was 0.0929 nM throughout.
For “[Gly]^8-[coumarin]^9-didemnin A [8G9CSAPL1]”, the 50% inhibitory concentration (IC50) in data set [1] (setting [5]) and in data set [2] (setting [6]) was 4.26 nM throughout.
For [Hiv]^3-[Ala]^9 aplidine [9ASHPL1], the IC50 in data set [1] (setting [5]) and in data set [2] (setting [6]) was 0.916 nM throughout.
On to “[Hiv]^3-[D-Lac(OTBDMS)]^9-aplidine [9LSHPL2(D)]”, for which the IC50 in data set [1] (setting [5]) and in data set [2] (setting [6]) was 85.5 nM each time.
As for [Hiv]^3-[NVa-Pro]^9-aplidine [9NVSHPL1], the IC50 in data set [1] (setting [5]) and in data set [2] (setting [6]) was 0.923 nM each time.
On to [Hiv]^3-[Pro]^8-didemnin A [8PSHPL1], for which the half-maximal inhibitory concentration (IC50) in data set [1] (setting [5]) and in data set [2] (setting [6]) was 1.01 nM in each case.
[Hiv]^3-[Z-Ala]^9-aplidine [9ZASHPL2]: the half-inhibitory concentration (IC50) in data set [1] (setting [5]) and in data set [2] (setting [6]) was 4.21 nM throughout.
On to “[Hiv]^3-[Z-NVa-Pro]^9-aplidine [9NVSHPL2]”, for which the 50% inhibitory concentration (IC50) in data set [1] (setting [5]) and in data set [2] (setting [6]) was 8.22 nM in each case.
In the case of [NVa-Pro]^9-aplidine [9NVSAPL1], the IC50 in data set [1] (setting [5]) and in data set [2] (setting [6]) was 0.439 nM in each case.
As to [coumarin]^8-didemnin A [8CSAPL1], the IC50 in data set [1] (setting [5]) and in data set [2] (setting [6]) was 0.941 nM each time.
